Source: ChEMBL document CHEMBL1201862, “PubChem BioAssay data set” (2004)
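Results reflect a 48-hour exposure of cells in 96-well plates to compound at five concentrations. Abbreviation: GI50, concentration required for 50% inhibition of growth.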 Calls of active or inactive are those of the source. Rule as the data show it: active = GI50 up to about 1.1 µM and inactive = higher.

Legend:
Assay in all cases: inhibition of tumour cell growth, NCI panel, 48 h
RPMI-8226 = tested on: RPMI-8226
UACC-62 = tested on: UACC-62
SK-MEL-5 = tested on: SK-MEL-5
Hs-578T = tested on: Hs-578T
NCI-H226 = tested on: NCI-H226
SF-268 = tested on: SF-268
NCI/ADR-RES = tested on: NCI/ADR-RES
SK-MEL-2 = tested on: SK-MEL-2
SK-OV-3 = tested on: SK-OV-3
SN12C = tested on: SN12C
IGROV-1 = tested on: IGROV-1
RXF 393 = tested on: RXF 393
NCI-H23 = tested on: NCI-H23
CCRF-CEM = tested on: CCRF-CEM
SF-295 = tested on: SF-295
MDA-MB-231 = tested on: MDA-MB-231
MDA-MB-435 = tested on: MDA-MB-435
CAKI-1 = tested on: CAKI-1
NCI-H460 = tested on: NCI-H460

Measured: GI50

O=C(CN1C(=O)c2ccccc2C1=O)NC1(C(=O)O)CCCC1
inactive: RPMI-8226 > 100 µM | UACC-62 > 100 µM | SK-MEL-5 > 100 µM | Hs-578T > 100 µM | NCI-H226 > 100 µM | SF-268 > 100 µM | NCI/ADR-RES > 100 µM | SK-MEL-2 > 100 µM | SK-OV-3 > 100 µM | SN12C > 100 µM | IGROV-1 > 100 µM | RXF 393 > 100 µM | NCI-H23 > 100 µM | CCRF-CEM > 100 µM | SF-295 > 100 µM | MDA-MB-231 > 100 µM | MDA-MB-435 > 100 µM | CAKI-1 > 100 µM

O=C(NNC(=S)Nc1ccc(Cl)cc1)C12CC3CC(CC(C3)C1)C2
inactive: UACC-62 3.88 µM | SK-MEL-5 3.85 µM | Hs-578T 17.1 µM | NCI-H226 10.7 µM | SF-268 6.05 µM | NCI/ADR-RES 3.56 µM | SK-MEL-2 14.3 µM | SK-OV-3 9.79 µM | SN12C 6.52 µM | IGROV-1 3.34 µM | RXF 393 14.7 µM | NCI-H23 7.5 µM | CCRF-CEM 1.29 µM | NCI-H460 2.97 µM | SF-295 5.87 µM | MDA-MB-231 3.88 µM | MDA-MB-435 7.53 µM | CAKI-1 7.19 µM

CCOC(=O)c1c(N2CCCC2)[nH]c(=O)c(C(c2ccc(Cl)c([N+](=O)[O-])c2)c2c(O)c(C(=O)OCC)c(N3CCCC3)[nH]c2=O)c1O
inactive: RPMI-8226 42.9 µM | UACC-62 26.8 µM | SK-MEL-5 37.8 µM | Hs-578T 6.55 µM | NCI-H226 63.5 µM | SF-268 23 µM | NCI/ADR-RES 28.7 µM | SK-OV-3 85.5 µM | SN12C 36.2 µM | RXF 393 31.7 µM | NCI-H23 22 µM | CCRF-CEM 23.6 µM | NCI-H460 > 100 µM | SF-295 37.6 µM | MDA-MB-231 22 µM | MDA-MB-435 29.4 µM | CAKI-1 24.4 µM

CCCCC[C@H](O)[C@H](C)C=C1SCCCS1
inactive: RPMI-8226 > 100 µM | UACC-62 > 100 µM | SK-MEL-5 > 100 µM | Hs-578T > 100 µM | NCI-H226 > 100 µM | SF-268 > 100 µM | NCI/ADR-RES > 100 µM | SK-MEL-2 > 100 µM | SK-OV-3 > 100 µM | SN12C > 100 µM | IGROV-1 > 100 µM | RXF 393 > 100 µM | NCI-H23 > 100 µM | CCRF-CEM > 100 µM | SF-295 > 100 µM | MDA-MB-231 > 100 µM | MDA-MB-435 > 100 µM | CAKI-1 > 100 µM

Cc1ccc(/C=N/NC2=NCCN2)s1
inactive: RPMI-8226 > 100 µM | UACC-62 > 100 µM | SK-MEL-5 > 100 µM | Hs-578T > 100 µM | NCI-H226 79.4 µM | SF-268 > 100 µM | NCI/ADR-RES > 100 µM | SK-MEL-2 > 100 µM | SK-OV-3 > 100 µM | SN12C > 100 µM | IGROV-1 > 100 µM | RXF 393 > 100 µM | NCI-H23 > 100 µM | SF-295 > 100 µM | MDA-MB-231 > 100 µM | MDA-MB-435 > 100 µM | CAKI-1 > 100 µM

O=c1[nH][nH]c(=O)n1Cc1ccccc1
inactive: RPMI-8226 > 100 µM | UACC-62 > 100 µM | SK-MEL-5 > 100 µM | Hs-578T > 100 µM | NCI-H226 > 100 µM | SF-268 > 100 µM | NCI/ADR-RES > 100 µM | SK-MEL-2 > 100 µM | SK-OV-3 > 100 µM | SN12C > 100 µM | RXF 393 > 100 µM | NCI-H23 > 100 µM | CCRF-CEM > 100 µM | NCI-H460 > 100 µM | MDA-MB-231 > 100 µM | MDA-MB-435 > 100 µM | CAKI-1 > 100 µM

O=C(C(Cl)=C(Nc1ccccc1)Nc1ccccc1)C(Cl)Cl
inactive: RPMI-8226 29.6 µM | UACC-62 18.6 µM | SK-MEL-5 14.9 µM | Hs-578T > 100 µM | NCI-H226 39.1 µM | SF-268 31.7 µM | NCI/ADR-RES 40.6 µM | SK-OV-3 37.6 µM | SN12C 25.5 µM | IGROV-1 32.1 µM | RXF 393 14.6 µM | NCI-H23 41.4 µM | CCRF-CEM 28.5 µM | NCI-H460 25.1 µM | SF-295 34 µM | MDA-MB-231 40.5 µM | MDA-MB-435 10.6 µM | CAKI-1 18.8 µM

CN(Cc1cnc2nc(N)nc(N)c2n1)c1ccc(C(=O)NCCCC(=O)O)cc1
inactive: RPMI-8226 > 40 µM | UACC-62 12.6 µM | SK-MEL-5 49.2 µM | Hs-578T > 92.3 µM | NCI-H226 > 37.5 µM | SF-268 29.9 µM | NCI/ADR-RES > 31.4 µM | SK-MEL-2 > 100 µM | SK-OV-3 97.9 µM | SN12C > 100 µM | IGROV-1 16.1 µM | RXF 393 > 100 µM | NCI-H23 37.3 µM | CCRF-CEM 17.3 µM | NCI-H460 7.24 µM | SF-295 12.3 µM | MDA-MB-231 > 100 µM | MDA-MB-435 > 25.4 µM | CAKI-1 > 27.5 µM

C1=Nc2sc3c(c2C2=NCCN12)CCCC3
active: SK-MEL-2 0.465 µM
inactive: RPMI-8226 20.8 µM | UACC-62 15.4 µM | SK-MEL-5 18 µM | Hs-578T 21.5 µM | NCI-H226 13.3 µM | SF-268 20.6 µM | NCI/ADR-RES 18.2 µM | IGROV-1 15.4 µM | RXF 393 25 µM | NCI-H23 15.6 µM | NCI-H460 17.5 µM | SF-295 21.5 µM | MDA-MB-231 14.2 µM | MDA-MB-435 18.5 µM | CAKI-1 17.4 µM

CC(Nc1ccc(Cl)c(Cl)c1)c1ccncc1 (centres undefined)
inactive: RPMI-8226 5.75 µM | SK-MEL-5 16.7 µM | Hs-578T > 10 µM | NCI-H226 17.9 µM | SF-268 44 µM | NCI/ADR-RES 28.1 µM | SK-MEL-2 22.9 µM | SK-OV-3 11.4 µM | SN12C 50.7 µM | IGROV-1 25.4 µM | RXF 393 17.6 µM | NCI-H23 31.4 µM | CCRF-CEM 20.7 µM | NCI-H460 16.6 µM | SF-295 23.9 µM | MDA-MB-231 16 µM | MDA-MB-435 29.4 µM | CAKI-1 31 µM

O=C(/C=C/c1ccc(O)cc1)c1cc(O)cc(O)c1
inactive: RPMI-8226 2.16 µM | UACC-62 10.4 µM | SK-MEL-5 15.5 µM | Hs-578T 29.9 µM | NCI-H226 24.1 µM | SF-268 19.8 µM | NCI/ADR-RES 18.9 µM | SK-MEL-2 18.1 µM | SK-OV-3 18.2 µM | SN12C 15.2 µM | IGROV-1 13.7 µM | RXF 393 15.8 µM | NCI-H23 20.5 µM | CCRF-CEM 3.36 µM | SF-295 15.7 µM | MDA-MB-231 15.5 µM | MDA-MB-435 14.2 µM | CAKI-1 14.4 µM

COc1ccc(Nc2nn3c(=O)c4c(C)c(C)sc4nc3s2)cc1
inactive: UACC-62 71 µM | SK-MEL-5 41.1 µM | Hs-578T 79.1 µM | NCI-H226 67.8 µM | SF-268 5.98 µM | NCI/ADR-RES 39.1 µM | SK-MEL-2 35.6 µM | SK-OV-3 26.6 µM | SN12C 33.5 µM | IGROV-1 42.2 µM | RXF 393 19.7 µM | NCI-H23 18.7 µM | CCRF-CEM 31.6 µM | NCI-H460 28.6 µM | SF-295 37.7 µM | MDA-MB-231 78.7 µM | MDA-MB-435 34.7 µM | CAKI-1 39.3 µM

O=[N+]([O-])/C(Cl)=C/C(=C1/Nc2ccccc2O1)[N+](=O)[O-]
inactive: RPMI-8226 28.5 µM | UACC-62 23.4 µM | SK-MEL-5 22.2 µM | Hs-578T 27.2 µM | NCI-H226 27.4 µM | SF-268 16.3 µM | NCI/ADR-RES 24.3 µM | SK-OV-3 24 µM | SN12C 36.1 µM | IGROV-1 33.1 µM | RXF 393 18.1 µM | NCI-H23 17.8 µM | CCRF-CEM 13.3 µM | NCI-H460 31.5 µM | SF-295 26.7 µM | MDA-MB-231 30.1 µM | MDA-MB-435 15.9 µM | CAKI-1 21.4 µM

Cc1cccc(NS(=O)(=O)c2ccc(/N=N/c3c(O)c(C(=O)O)cc4ccccc34)cc2)n1
inactive: RPMI-8226 > 100 µM | UACC-62 > 100 µM | SK-MEL-5 > 100 µM | Hs-578T > 100 µM | NCI-H226 > 100 µM | SF-268 > 100 µM | NCI/ADR-RES > 100 µM | SK-MEL-2 > 100 µM | SK-OV-3 > 100 µM | IGROV-1 > 100 µM | RXF 393 > 100 µM | NCI-H23 > 100 µM | CCRF-CEM > 100 µM | NCI-H460 > 100 µM | SF-295 > 100 µM | MDA-MB-231 > 100 µM | MDA-MB-435 > 100 µM | CAKI-1 > 100 µM

CC1=NN(C(=O)c2ccncc2)C(=O)C1
inactive: UACC-62 > 100 µM | SK-MEL-5 > 100 µM | Hs-578T > 100 µM | NCI-H226 > 100 µM | SF-268 > 100 µM | NCI/ADR-RES > 100 µM | SK-MEL-2 > 100 µM | SK-OV-3 > 100 µM | SN12C 29.2 µM | IGROV-1 > 100 µM | RXF 393 > 100 µM | NCI-H23 > 100 µM | CCRF-CEM > 100 µM | NCI-H460 > 100 µM | SF-295 > 100 µM | MDA-MB-231 32.2 µM | MDA-MB-435 > 100 µM | CAKI-1 > 100 µM

CC1(C)Cc2c(sc3[nH]c(=S)[nH]c(=S)c23)CS1
inactive: RPMI-8226 25.1 µM | UACC-62 18.5 µM | SK-MEL-5 29.6 µM | Hs-578T 45.2 µM | NCI-H226 44.5 µM | SF-268 32.7 µM | NCI/ADR-RES 43.4 µM | SK-MEL-2 38.4 µM | SK-OV-3 27.7 µM | SN12C 40.5 µM | IGROV-1 29.9 µM | RXF 393 60.8 µM | NCI-H23 55.3 µM | CCRF-CEM 29.4 µM | NCI-H460 40.2 µM | MDA-MB-231 66.8 µM | MDA-MB-435 29.9 µM | CAKI-1 30.5 µM
